# Source: ChEMBL document CHEMBL1687752, “Impact of antifungal prophylaxis on colonization and azole susceptibility of Candida species” (2009)
# Tests used:
# Assay type in all cases: functional
# [1] = system: Nakaseomyces glabratus; experiment: Antifungal activity against Candida glabrata isolated from neutropenic subjects with AML or MDS receiving posaconazole by broth microdilution method
# [2] = system: Nakaseomyces glabratus; experiment: Ratio of URA3 gene expression in Candida glabrata isolated from patient 002 receiving antifungal drug to URA3 gene expression in Candida glabrata isolated from patient 002 by RT-PCR analysis
# [3] = system: Nakaseomyces glabratus; experiment: Antifungal activity against 12 days cultured Candida glabrata isolated from HSCT recipient with acute or chronic GVHD mouth receiving antifungal therapy for 143 days after 116 days of prophylaxis by broth microdilution method
# [4] = system: Nakaseomyces glabratus; experiment: Antifungal activity against Candida glabrata isolated from HSCT recipients with acute or chronic GVHD receiving posaconazole by broth microdilution method
# [5] = system: Nakaseomyces glabratus; experiment: Antifungal activity against Candida glabrata isolated from HSCT recipient 975 with acute or chronic GVHD mouth receiving antifungal drug after 112 days prophylaxis by broth microdilution method
# [6] = system: Nakaseomyces glabratus; experiment: Antifungal activity against Candida glabrata isolated from HSCT recipient 270 with acute or chronic GVHD mouth after 108 days prophylaxis by broth microdilution method
# [7] = system: Nakaseomyces glabratus; experiment: Ratio of CDR1 gene expression in Candida glabrata isolated from patient 002 receiving antifungal drug to CDR1 gene expression in Candida glabrata isolated from patient 002 by RT-PCR analysis
# [8] = system: Pichia kudriavzevii; experiment: Antifungal activity against 16 days cultured Candida krusei isolated from neutropenic subject with AML or MDS pharynx receiving antifungal therapy for 19 days after 6 days of prophylaxis by broth microdilution method
# [9] = system: Nakaseomyces glabratus; experiment: Antifungal activity against 176 days cultured Candida glabrata isolated from HSCT recipient with acute or chronic GVHD mouth receiving antifungal therapy for 168 days after 113 days of prophylaxis by broth microdilution method
# [10] = system: Nakaseomyces glabratus; experiment: Antifungal activity against Candida glabrata isolated from HSCT recipient 270 with acute or chronic GVHD mouth receiving antifungal drug after 108 days prophylaxis by broth microdilution method
# [11] = system: Candida albicans; experiment: Antifungal activity against Candida albicans isolated from neutropenic subjects with AML or MDS receiving posaconazole assessed as maximum MIC by broth microdilution method
# [12] = system: Candida albicans; experiment: Antifungal activity against Candida albicans isolated from HSCT recipient 262 with acute or chronic GVHD mouth after 115 days prophylaxis by broth microdilution method
# [13] = system: Nakaseomyces glabratus; experiment: Ratio of CDR1 gene expression in Candida glabrata isolated from patient 807 receiving antifungal drug to CDR1 gene expression in Candida glabrata isolated from patient 807 by RT-PCR analysis
# [14] = system: Nakaseomyces glabratus; experiment: Ratio of CDR2 gene expression in Candida glabrata isolated from patient 002 receiving antifungal drug to CDR2 gene expression in Candida glabrata isolated from patient 002 by RT-PCR analysis
# [15] = system: Nakaseomyces glabratus; experiment: Ratio of URA3 gene expression in Candida glabrata isolated from patient 491 receiving antifungal drug to URA3 gene expression in Candida glabrata isolated from patient 491 by RT-PCR analysis
# [16] = system: Nakaseomyces glabratus; experiment: Antifungal activity against Candida glabrata isolated from HSCT recipient 807 with acute or chronic GVHD mouth after 114 days prophylaxis by broth microdilution method
# [17] = system: Nakaseomyces glabratus; experiment: Ratio of CDR1 gene expression in Candida glabrata isolated from patient 491 receiving antifungal drug to CDR1 gene expression in Candida glabrata isolated from patient 491 by RT-PCR analysis
# [18] = system: Nakaseomyces glabratus; experiment: Ratio of ERG11 gene expression in Candida glabrata isolated from patient 491 receiving antifungal drug to ERG11 gene expression in Candida glabrata isolated from patient 491 by RT-PCR analysis
# [19] = system: Nakaseomyces glabratus; experiment: Ratio of URA3 gene expression in Candida glabrata isolated from patient 497 receiving antifungal drug to URA3 gene expression in Candida glabrata isolated from patient 497 by RT-PCR analysis
# [20] = system: Nakaseomyces glabratus; experiment: Ratio of ERG11 gene expression in Candida glabrata isolated from patient 002 receiving antifungal drug to ERG11 gene expression in Candida glabrata isolated from patient 002 by RT-PCR analysis
# [21] = system: Pichia kudriavzevii; experiment: Antifungal activity against Candida krusei isolated from HSCT recipients with acute or chronic GVHD prior to initiation of posaconazole therapy assessed as maximum MIC by broth microdilution method
# [22] = system: Nakaseomyces glabratus; experiment: Ratio of ERG11 gene expression in Candida glabrata isolated from patient 497 receiving antifungal drug to ERG11 gene expression in Candida glabrata isolated from patient 497 by RT-PCR analysis
# [23] = system: Nakaseomyces glabratus; experiment: Ratio of ERG11 gene expression in Candida glabrata isolated from patient 807 receiving antifungal drug to ERG11 gene expression in Candida glabrata isolated from patient 807 by RT-PCR analysis
# [24] = system: Nakaseomyces glabratus; experiment: Ratio of CDR1 gene expression in Candida glabrata isolated from patient 497 receiving antifungal drug to CDR1 gene expression in Candida glabrata isolated from patient 497 by RT-PCR analysis
# [25] = system: Nakaseomyces glabratus; experiment: Ratio of CDR2 gene expression in Candida glabrata isolated from patient 497 receiving antifungal drug to CDR2 gene expression in Candida glabrata isolated from patient 497 by RT-PCR analysis
# [26] = system: Nakaseomyces glabratus; experiment: Antifungal activity against 3 days cultured Candida glabrata isolated from neutropenic subject with AML or MDS stool receiving antifungal therapy for 25 days after 3 days of prophylaxis by broth microdilution method
# [27] = system: Nakaseomyces glabratus; experiment: Ratio of URA3 gene expression in Candida glabrata isolated from patient 807 receiving antifungal drug to URA3 gene expression in Candida glabrata isolated from patient 807 by RT-PCR analysis
# [28] = system: Nakaseomyces glabratus; experiment: Ratio of CDR1 gene expression in Candida glabrata isolated from patient 186 receiving antifungal drug to CDR1 gene expression in Candida glabrata isolated from patient 186 by RT-PCR analysis
# [29] = system: Nakaseomyces glabratus; experiment: Ratio of ERG11 gene expression in Candida glabrata isolated from patient 975 receiving antifungal drug to ERG11 gene expression in Candida glabrata isolated from patient 975 by RT-PCR analysis
# [30] = system: Nakaseomyces glabratus; experiment: Ratio of CDR1 gene expression in Candida glabrata isolated from patient 975 receiving antifungal drug to CDR1 gene expression in Candida glabrata isolated from patient 975 by RT-PCR analysis
# [31] = system: Nakaseomyces glabratus; experiment: Ratio of CDR2 gene expression in Candida glabrata isolated from patient 975 receiving antifungal drug to CDR2 gene expression in Candida glabrata isolated from patient 975 by RT-PCR analysis
# [32] = system: Nakaseomyces glabratus; experiment: Antifungal activity against Candida glabrata isolated from HSCT recipient 491 with acute or chronic GVHD mouth after 112 days prophylaxis by broth microdilution method
# [33] = system: Nakaseomyces glabratus; experiment: Ratio of URA3 gene expression in Candida glabrata isolated from patient 975 receiving antifungal drug to URA3 gene expression in Candida glabrata isolated from patient 975 by RT-PCR analysis
# [34] = system: Nakaseomyces glabratus; experiment: Ratio of URA3 gene expression in Candida glabrata isolated from patient 186 receiving antifungal drug to URA3 gene expression in Candida glabrata isolated from patient 186 by RT-PCR analysis
# [35] = system: Nakaseomyces glabratus; experiment: Antifungal activity against 16 days cultured Candida glabrata isolated from invasive fungal infected subject blood after 17 days of prophylaxis by broth microdilution method
# [36] = system: Nakaseomyces glabratus; experiment: Ratio of ERG11 gene expression in Candida glabrata isolated from patient 186 receiving antifungal drug to ERG11 gene expression in Candida glabrata isolated from patient 186 by RT-PCR analysis
# [37] = system: Nakaseomyces glabratus; experiment: Ratio of CDR2 gene expression in Candida glabrata isolated from patient 186 receiving antifungal drug to CDR2 gene expression in Candida glabrata isolated from patient 186 by RT-PCR analysis
SMILES,MIC50 [1] [µg/mL],MIC90 [1] [µg/mL],MIC [3] [µg/mL],MIC50 [4] [µg/mL],MIC90 [4] [µg/mL],MIC [5] [µg/mL],MIC [6] [µg/mL],MIC [8] [µg/mL],MIC [9] [µg/mL],MIC [10] [µg/mL],MIC [11] [µg/mL],MIC [12] [µg/mL],MIC [16] [µg/mL],MIC [21] [µg/mL],MIC [26] [µg/mL],MIC [35] [µg/mL],further results
OC(Cn1cncn1)(Cn1cncn1)c1ccc(F)cc1F [FLUCONAZOLE],8,64,64,64,64,128,8,64,> 64,8,0.25,0.25,16,64,8,–,fold change (FC) [2]: -1.2; fold change (FC) [7]: 1.5; fold change (FC) [13]: 4.3; fold change (FC) [14]: -1.2; fold change (FC) [15]: 1; fold change (FC) [17]: 4.5; fold change (FC) [18]: 1.2; fold change (FC) [19]: -1.2; fold change (FC) [20]: -1.2; fold change (FC) [22]: -1.2; fold change (FC) [23]: 1.1; fold change (FC) [24]: 1.3; fold change (FC) [25]: -1.2; fold change (FC) [27]: 1.4
CC[C@@H]([C@H](C)O)n1ncn(-c2ccc(N3CCN(c4ccc(OC[C@@H]5CO[C@@](Cn6cncn6)(c6ccc(F)cc6F)C5)cc4)CC3)cc2)c1=O [POSACONAZOLE],0.5,4,2,2,8,4,0.06,0.25,4,1,0.03,< 0.015,0.25,0.5,0.5,> 8,fold change (FC) [28]: -1.5; fold change (FC) [29]: 1.6; fold change (FC) [30]: 2.25; fold change (FC) [31]: 1.5; MIC [32]: 0.25 µg/mL; fold change (FC) [33]: 1.2; fold change (FC) [34]: -1.4; fold change (FC) [36]: -1.4; fold change (FC) [37]: -1.45
CCC(C)n1ncn(-c2ccc(N3CCN(c4ccc(OCC5COC(Cn6cncn6)(c6ccc(Cl)cc6Cl)O5)cc4)CC3)cc2)c1=O (stereo not given) [ITRACONAZOLE],0.5,8,4,2,8,8,0.125,0.5,2,1,0.03,< 0.015,0.5,16,1,> 8,–
